# From article PMC4464647, “ANO1 (TMEM16A) in pancreatic ductal adenocarcinoma (PDAC)” (Pflugers Archiv, 2014)
# d = 2'-deoxy (DNA)
# Legend:
# [1] = system: ANO1; assay: Western blot of ANO1 protein expression after siRNA knockdown; assay type: cell-based, human; conditions: 36 h after transfection, β-actin loading control
# Method: DharmaFECT 1 Transfection Reagent (Thermo Scientific, Germany) was used for transfection of siRNA targeting ANO1 (50 nM final concentration) or scrambled (5 nM final concentration). Cells were transfected according to the manufacturer’s protocol. Predesigned siRNA oligo was obtained from Sigma-Aldrich (5′-[…][dT][dT]-3′, 5′-[…][dT][dT]-3′) or negative control (Silencer® Negative Control No. 1 siRNA; Ambion, Denmark). ANO1 overexpressing HEK293 cells were generated by adding 0.5 μg/ml mANO1-GFP vector to DMEM containing 1 % v/v penicillin and streptomycin. The mixture was vortexed and incubated for 5 min, and 20 μg/ml polyethylenimine (PEI) was added. The mixture was vortexed again and added drop-wise to 60 % confluent HEK293 cells in DMEM medium containing 5 % v/v FBS and 1 % v/v penicillin and streptomycin after 10 min incubation at room temperature. Media was changed after 4 h incubation at 37 °C and 5 % CO2.
# Protein was isolated from cells 36 h after transfection with siRNA targeting ANO1, in a lysis buffer containing (in mM): 10 Tris–HCl, 10 EDTA, 1 % sodium dodecyl sulfate (SDS), 0.5 % sodium deoxycholate, and 1 % complete protease inhibitor mixture (Roche, Denmark), pH 7.4, and was separated by 7 % SDS-PAGE. Protein was subsequently transferred to nitrocellulose membrane (Novex, Denmark). […]
# Fig. 3 ANO1 is the major contributor of CaCC currents in PDAC cells and is sensitive to Cl^− channel inhibitors and siRNA. Whole-cell patch-clamp recordings with 1 μM Ca^2+ in pipette solution. a Representative current traces measured in Capan-1 cells upon exposure to different inhibitors. b Quantification of CaCC currents at +67 mV recorded with inhibitors compared to currents in presence of DMSO; currents of siANO1 cells were compared to those of MOCK transfected cells. c Steady-state I–V relationships of cells transfected with either scrambled siRNA (MOCK) or siRNA targeting ANO1. d Densitometric quantification of Western blot analysis of siRNA knockdown. β-Actin was used as a loading control. […]
# [2] = system: VRAC; assay: Whole-cell patch-clamp of swelling-activated (VRAC) currents, hypotonic bath, 0 μM Ca2+ pipette; assay type: cell-based, human; conditions: HPDE and BxPC-3 cells, inhibitor 20 μM, Vm = +65 mV
# Method: Cells were grown on poly-L-lysine coated coverslips. For knockdown experiments, cells were transfected with siRNA targeting ANO1 or scrambled siRNA shortly after complete attachment of the cells (approx. 3 h after plating). Currents were measured 36–48 h after transfection. Whole-cell patch-clamp recordings were performed using the Axopatch 200B amplifier interfaced to a Digidata 1440A controlled by pClamp10 software (Molecular Devices, USA). Analogue signals were acquired at 2.5 kHz and filtered at 1 kHz. […] An agar bridge made of 3 % agar and 97 % of the bath solution containing NMDG-Cl (below) was used as reference electrode. Current activations were recorded from an output holding potential, V out = 0 mV with ramp protocols spanning from −100 to 100 mV over 1 s and run continuously with 15-s intervals. […] Liquid junction potentials (V lj) were estimated as described in [10] with membrane potentials calculated as, V m = V out − V lj. […] Instantaneous currents were measured 1 ms after each voltage step. […]
# One micromolar free Ca^2+ pipette solution include the following (in mM): 100 CsAsp, 40 CsCl, 4.34 CaCl2, 4 Na2ATP, 1 MgCl2, 5 EGTA, 10 HEPES, pH 7.2, osmolality 295 mosmol/kg or 0 μM free Ca^2+ solution containing no CaCl2 and 10 mM EGTA. […] All osmolalities were measured in a Wescor Vapro model 5520 osmometer (Wescor Inc., USA) calibrated by the manufacturer’s Optimol standard solutions. […]
compound,measurement,setting,value
"siRNA targeting ANO1: Predesigned siRNA oligo from Sigma-Aldrich, 5′-CCUUCAACGUCAGUGACUU[dT][dT]-3′, 5′-AAGUCACUGACGUUGAAGG[dT][dT]-3′ (RNA, 3' dTdT, backbone not given here)",ANO1 protein expression decreased to,[1]; AsPC-1 cells,54 ± 14%
same,ANO1 protein expression decreased to,[1]; BxPC-3 cells,20 ± 7%
same,ANO1 protein expression decreased to,[1]; Capan-1 cells,37 ± 8%
"CCc1c(C)nc(SCC(=O)Nc2nc(-c3ccc(OC)cc3)cs2)[nH]c1=O [T16Ainh-A01, 2-[(5-Ethyl-1,6-dihydro-4-methyl-6-oxo-2-pyrimidinyl)thio]-N-[4-(4-methoxyphenyl)-2-thiazolyl]acetamide]",effect on VRAC currents,[2],Neither T16Ainh-A01 nor CaCCinh-A01 inhibited the VRAC currents significantly
"CC(C)(C)C1CCc2c(sc(NC(=O)c3ccco3)c2C(=O)O)C1 (centres unmarked) [CaCCinh-A01, 6-(1,1-dimethylethyl)-2-[(2-furanylcarbonyl)amino]-4,5,6,7-tetrahydrobenzo[b]thiophene-3-carboxylic acid]",effect on VRAC currents,[2],Neither T16Ainh-A01 nor CaCCinh-A01 inhibited the VRAC currents significantly
